Measurements reported in article PMC10466331, “Fluorescence polarisation activity-based protein profiling for the identification of deoxynojirimycin-type inhibitors selective for lysosomal retaining alpha- and beta-glucosidases” (Chemical Science, 2023).
Like-named read-outs stand apart in the source and are kept apart here.

Legend:
Assay type in all cases: biochemical
[1] = target: T1, recombinant human GAA (rhGAA, Myozyme) (Homo sapiens, UniProt P10253); assay: competitive FluoPol-ABPP assay on rhGAA with TAMRA-ABP II; details: for GAA FP% (residual FP-signal): library screen, 5 μM inhibitor, 25 nM ABP II;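 on all read-outs here: fluorescence polarization read at 540 nm excitation and 590 nm emission, background-corrected, normalized to uninhibited probe labelling as 100% and excess cyclosulfate as 0%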
T1 construct: purchased Genzyme

[2] = target: T2, human recombinant lysosomal α-glucosidase GAA (Myozyme) (Homo sapiens, UniProt P10253); assay: fluorogenic substrate (4MU-α-D-glucopyranoside) assay on rhGAA; details: Table S2, 4-MU alpha glucoside substrate, read-out: IC50 on rhGAA
T2 construct: purchased Genzyme

[3] = target: T3, ER α-glucosidase GANAB (from Pompe disease Fibroblast lysates) (Homo sapiens, UniProt Q14697); assay: fluorogenic substrate (4MU-α-D-glucopyranoside) assay on GANAB in Pompe fibroblast homogenates;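 further: inhibitor preincubated 30 min at 37 °C with homogenate, then GANAB activity read after 2 h with 3.0 mM fluorogenic substrate in McIlvaine buffer containing 0.1% BSA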
T3 construct: Cellular homogenates of Pompe fibroblasts (1 mg mL^−1) were used as protein source for GANAB; endogenous in cells; host or cells: Pompe disease fibroblasts (homogenate)
T3 sequence (Q14697 29-944): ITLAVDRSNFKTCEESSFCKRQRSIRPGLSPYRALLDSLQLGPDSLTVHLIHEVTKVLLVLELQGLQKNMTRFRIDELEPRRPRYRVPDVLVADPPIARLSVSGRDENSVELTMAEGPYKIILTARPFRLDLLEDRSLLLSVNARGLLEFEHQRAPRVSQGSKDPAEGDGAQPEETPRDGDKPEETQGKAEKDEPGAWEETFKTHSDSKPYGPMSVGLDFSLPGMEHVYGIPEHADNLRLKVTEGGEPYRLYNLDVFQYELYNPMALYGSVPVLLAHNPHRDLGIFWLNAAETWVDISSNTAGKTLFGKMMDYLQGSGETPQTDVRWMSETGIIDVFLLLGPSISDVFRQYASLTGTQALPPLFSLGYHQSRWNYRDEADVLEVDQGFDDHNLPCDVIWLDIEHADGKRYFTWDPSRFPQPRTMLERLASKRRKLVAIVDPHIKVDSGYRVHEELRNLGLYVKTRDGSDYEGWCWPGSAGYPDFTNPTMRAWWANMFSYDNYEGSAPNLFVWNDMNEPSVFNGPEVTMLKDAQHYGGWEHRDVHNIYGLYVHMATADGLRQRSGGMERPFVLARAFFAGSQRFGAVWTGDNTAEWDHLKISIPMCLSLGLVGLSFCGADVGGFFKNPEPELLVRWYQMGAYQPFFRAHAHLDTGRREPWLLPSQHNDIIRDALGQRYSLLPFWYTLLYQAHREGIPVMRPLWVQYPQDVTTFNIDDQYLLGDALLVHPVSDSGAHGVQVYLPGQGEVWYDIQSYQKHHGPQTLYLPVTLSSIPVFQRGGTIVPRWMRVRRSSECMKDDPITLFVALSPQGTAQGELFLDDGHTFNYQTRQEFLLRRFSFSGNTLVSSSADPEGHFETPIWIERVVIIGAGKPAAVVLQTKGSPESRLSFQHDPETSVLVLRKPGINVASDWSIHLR
T3 sequence (P14314 15-528 partner): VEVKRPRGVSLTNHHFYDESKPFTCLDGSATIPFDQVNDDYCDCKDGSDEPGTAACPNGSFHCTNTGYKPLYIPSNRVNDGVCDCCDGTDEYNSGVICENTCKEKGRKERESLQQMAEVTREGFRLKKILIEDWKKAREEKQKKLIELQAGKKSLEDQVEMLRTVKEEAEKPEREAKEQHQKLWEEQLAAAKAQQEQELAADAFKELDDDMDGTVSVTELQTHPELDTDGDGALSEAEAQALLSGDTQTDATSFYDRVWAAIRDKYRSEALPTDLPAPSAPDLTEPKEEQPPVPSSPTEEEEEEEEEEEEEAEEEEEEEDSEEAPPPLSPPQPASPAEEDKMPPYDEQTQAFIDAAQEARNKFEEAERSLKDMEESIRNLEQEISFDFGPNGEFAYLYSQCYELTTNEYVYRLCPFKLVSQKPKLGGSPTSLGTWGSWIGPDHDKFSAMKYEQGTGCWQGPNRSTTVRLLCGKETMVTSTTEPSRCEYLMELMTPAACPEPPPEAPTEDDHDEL

[4] = Table S2, 4-MU alpha glucoside substrate, read-out: IC50 on GANAB

Structure (SMILES) | GAA FP% (residual FP-signal) [1] [%] | IC50 [2] [nM] | IC50 [3, 4] [nM] | further results
CC(C)=CCC/C(C)=C/CC/C(C)=C/CN1C[C@H](O)[C@@H](O)[C@H](O)[C@H]1CO [#ID 16] | 0.9 | 320 | 8800 | 
O=C(CCCCCN1C[C@H](O)[C@@H](O)[C@H](O)[C@H]1CO)NC12CC3CC(CC(C3)C1)C2 [#ID 18] | 24 | 360 | 2400 | 
CCCCOCCCCCN1C[C@H](O)[C@@H](O)[C@H](O)[C@H]1CO [#ID 19] |  |  |  | GAA FP% (residual FP-signal) ([1]; listed as 19): 28%; IC50 ([2]; listed as 19): 350 nM; IC50 ([3]; Table S2, 4-MU alpha glucoside substrate, listed as 19, read-out: IC50 on GANAB): 3600 nM
CCCCCOCCCCCN1C[C@H](O)[C@@H](O)[C@H](O)[C@H]1CO [#ID 20] |  |  |  | GAA FP% (residual FP-signal) ([1]; listed as 20): 17%; IC50 ([2]; listed as 20): 330 nM; IC50 ([3]; Table S2, 4-MU alpha glucoside substrate, listed as 20, read-out: IC50 on GANAB): 19000 nM
CCCCCCOCCCCCN1C[C@H](O)[C@@H](O)[C@H](O)[C@H]1CO [#ID 21] | 17 | 310 | 14800 | 
CC(C)CCCC(C)C1CCC2C3CC=C4CC(OCCCCCN5CC(O)C(O)C(O)C5CO)CCC4(C)C3CCC12C (centres unmarked) [#ID 22] | 6.5 | 170 | 6000 | 
CCCCCCCOCCCCCN1C[C@H](O)[C@@H](O)[C@H](O)[C@H]1CO [#ID 23] |  |  |  | GAA FP% (residual FP-signal) ([1]; listed as 23): 16%; IC50 ([2]; listed as 23): 290 nM; IC50 ([3]; Table S2, 4-MU alpha glucoside substrate, listed as 23, read-out: IC50 on GANAB): 7200 nM
CCCCCCCCOCCCCCN1C[C@H](O)[C@@H](O)[C@H](O)[C@H]1CO [#ID 25] | 13 | 100 | 4100 | 
CC(C)(C)COCCCCCN1C[C@H](O)[C@@H](O)[C@H](O)[C@@H]1CO [#ID 26] | 23 | 640 | 29000 | 
CCCCCCCCCOCCCCCN1C[C@H](O)[C@@H](O)[C@H](O)[C@H]1CO [#ID 27] | 8.4 | 280 | 2800 | 
CCCCCCN1C[C@H](O)[C@@H](O)[C@H](O)[C@H]1CO [#ID 29] |  |  |  | GAA FP% (residual FP-signal) ([1]; listed as 29): 49%; IC50 ([2]; listed as 29): 1500 nM
CCCCCCCN1C[C@H](O)[C@@H](O)[C@H](O)[C@H]1CO [#ID 31] | 35 | 910 | 60000 | 
CCCCCCCCN1C[C@H](O)[C@@H](O)[C@H](O)[C@H]1CO [#ID 33] |  |  |  | GAA FP% (residual FP-signal) ([1]; listed as 33): 28%; IC50 ([2]; listed as 33): 540 nM; IC50 ([3]; Table S2, 4-MU alpha glucoside substrate, listed as 33, read-out: IC50 on GANAB): 16000 nM
OC[C@@H]1[C@@H](O)[C@H](O)[C@@H](O)CN1CCCCCOCc1ccc(-c2ccccc2)cc1F [#ID 35] | 4.8 | 21 | 710 | 
OC[C@@H]1[C@@H](O)[C@H](O)[C@@H](O)CN1CCCCCOCc1ccc(-c2ccccc2)c(F)c1 [#ID 37] | 3.6 | 37 | 1600 | 
OC[C@@H]1[C@H](O)[C@@H](O)[C@H](O)CN1CCOCc1ccccc1 [#ID 47] | 34 | 550 | 4600 | 
OC[C@@H]1[C@@H](O)[C@H](O)[C@@H](O)CN1CCCCCOCc1ccc2ccccc2c1 [#ID 58] | 7.7 | 250 | 850 | 
CC(C)(C)COCCOCCN1C[C@H](O)[C@@H](O)[C@H](O)[C@H]1CO [#ID 89] | 24 | 730 | 1700 | 
CC(C)=CCC/C(C)=C/CC/C(C)=C/COCCCCCN1C[C@H](O)[C@@H](O)[C@H](O)[C@H]1CO [#ID 90] | 6.8 | 490 | 2500 | 
OC[C@@H]1[C@@H](O)[C@H](O)[C@@H](O)CN1CCCCCOCC12CC3CC(C1)CC(COCCCCCN1C[C@H](O)[C@@H](O)[C@H](O)[C@H]1CO)(C3)C2 [#ID 99] | 5.6 | 280 | 1300 | 
CC(C)=CCOCCCCCN1C[C@H](O)[C@@H](O)[C@H](O)[C@H]1CO [#ID 100] | 19 | 600 | 9900 | 
CCCCCCCCCN1C[C@H](O)[C@@H](O)[C@H](O)[C@H]1CO [#ID 103] | 18 | 320 | 9000 | 
OC[C@@H]1[C@H](O)[C@@H](O)[C@H](O)CN1CCCCCOCc1ccc(-c2ccccc2)cc1 [#ID 122] | 35 | 1300 |  | 
OC[C@@H]1[C@H](O)[C@H](O)[C@@H](O)CN1CCCCCOCC12CC3CC(CC(C3)C1)C2 [#ID 150] | 15 |  | 12000 | 
OC[C@H]1NC[C@H](O)[C@@H](O)[C@H]1O [#ID 154] | 2.4 |  |  | 
OC[C@H]1N[C@H](C/C=C/CCOCC23CC4CC(CC(C4)C2)C3)[C@H](O)[C@@H](O)[C@@H]1O [#ID 159] | 23 | 450 |  | 
CCCCOCCOCCN1C[C@H](O)[C@@H](O)[C@H](O)[C@H]1CO [#ID 200] | 46 | 3900 |  | 
CCCCCN1C[C@H](O)[C@@H](O)[C@H](O)[C@H]1CO [#ID 297] | 12 | 1700 |  | 
O=S1(=O)O[C@@H]2[C@H](O)[C@@H](O)[C@H](O)[C@@H](CO)[C@@H]2O1 [Compound 12, 1,6-epi-cyclophellitol cyclosulfate, reference compound] |  |  |  | IC50 ([1]; competitive FluoPol-ABPP, rhGAA 80 nM, ABP II 80 nM, pH 5.0, read-out: apparent IC50 (GAA)): 33 nM
OC[C@@H]1[C@@H](O)[C@H](O)[C@@H](O)CN1CCCCCOCC12CC3CC(CC(C3)C1)C2 [Compound 13] | 8.9 |  | 5400 | IC50 ([3]; 4MU-α-glucoside substrate, pH 7.0, mean ± SD, 3 technical replicates, read-out: IC50 GANAB): 5360 ± 570 nM
